Drawing on patent US20220048915A1 (SHANGHAI PHARMACEUTICALS HOLDING CO., LTD., priority 2018, published 2022), this text covers IC50 for 26 compounds.

Where two headings read alike, the source gives them in different places.

What all share (experiment): In vitro inhibition of p38 kinase (LANCE Ultra TR-FRET)
Type in all cases: biochemical

The target in test [1] is T1, p38γ (Homo sapiens, UniProt P53778).
T1 sequence (P53778 1-367): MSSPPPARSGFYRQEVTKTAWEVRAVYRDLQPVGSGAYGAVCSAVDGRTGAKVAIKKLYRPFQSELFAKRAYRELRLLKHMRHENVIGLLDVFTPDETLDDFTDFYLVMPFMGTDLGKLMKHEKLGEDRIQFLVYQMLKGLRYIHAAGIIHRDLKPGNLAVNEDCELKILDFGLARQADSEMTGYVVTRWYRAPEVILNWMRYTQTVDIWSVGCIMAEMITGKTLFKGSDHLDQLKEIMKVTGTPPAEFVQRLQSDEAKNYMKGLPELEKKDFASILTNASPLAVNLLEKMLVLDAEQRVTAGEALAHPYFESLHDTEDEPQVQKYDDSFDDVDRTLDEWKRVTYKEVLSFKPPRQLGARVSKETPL
How it is done: 10 mM of the storage solution of the test compound was taken and placed in a 96-well compound plate, and using DMSO for the compound at an initial concentration of 100×, which was then used as the first concentration and then carried out a 3-fold gradient dilution with DMSO for a total of 10 concentrations. After that, 1 μL of gradient dilutions were added to 19 μL of 1× reaction buffer to prepare 5× compound for later use. […] To the compound-free control well was added 2 μL of the following liquid: 19 μL of 1× reaction buffer with addition of 1 μL of DMSO. To the Min control well was added 2 μL of 250 mM EDTA.
1× of LANCE® Detection value Buffer was used to prepare a 2×Antibody for use, and the amount was 5 μL per well, at the same time 10 mM EDTA was prepared for later use. After the enzyme reaction was carried out for 30 minutes, 5 μL 10 mM EDTA was added to the 384-well plate and the reaction was carried out at room temperature for 5 minutes. Afterwards, 5 μL LANCE® Ultra Europium-anti-phospho-eIF4E-binding protein 1 (Thr37/46) was added to the 384-well plate and the reaction was carried out at room temperature for one hour.

For test [2], the target named is p38β (Homo sapiens, UniProt Q15759).
Chain of p38β (Q15759 whole entry): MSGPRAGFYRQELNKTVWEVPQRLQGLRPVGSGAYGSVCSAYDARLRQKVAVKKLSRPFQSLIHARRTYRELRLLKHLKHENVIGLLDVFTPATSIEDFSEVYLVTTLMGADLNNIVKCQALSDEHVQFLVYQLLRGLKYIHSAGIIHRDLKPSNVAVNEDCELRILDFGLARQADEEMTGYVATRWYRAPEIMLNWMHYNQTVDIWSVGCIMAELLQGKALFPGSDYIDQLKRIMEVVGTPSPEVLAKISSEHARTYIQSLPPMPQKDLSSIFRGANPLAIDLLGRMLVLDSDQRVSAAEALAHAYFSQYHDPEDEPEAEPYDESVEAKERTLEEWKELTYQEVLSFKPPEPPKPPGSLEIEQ
Test [3] has as its target p38α (Homo sapiens, UniProt Q16539).
Where [4] appears, read: read-out: Kinase in vitro IC50(nM) p38γ.
Setting [5] is: read-out: Kinase in vitro IC50(nM) p38β.
Setting [6] is: read-out: Kinase in vitro IC50(nM) p38α.

Chain of p38α (Q16539 whole entry): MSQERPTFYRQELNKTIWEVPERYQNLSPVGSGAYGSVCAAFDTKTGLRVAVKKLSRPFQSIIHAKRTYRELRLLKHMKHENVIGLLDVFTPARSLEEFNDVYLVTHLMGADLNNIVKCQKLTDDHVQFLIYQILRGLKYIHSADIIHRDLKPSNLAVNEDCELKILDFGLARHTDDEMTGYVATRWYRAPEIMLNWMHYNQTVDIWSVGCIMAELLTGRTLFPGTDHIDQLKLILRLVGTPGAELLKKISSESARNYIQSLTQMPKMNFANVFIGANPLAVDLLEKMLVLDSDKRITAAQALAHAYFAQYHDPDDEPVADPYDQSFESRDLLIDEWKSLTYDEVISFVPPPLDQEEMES

For the compound `O=c1ncn2nc(OC3CC(F)(F)C3)ccc2c1-c1c(Cl)cccc1Cl` [Compound I-1, 5-(2,6-dichlorophenyl)-2-(3,3-difluorocyclobutoxy)-6H-pyrimido[1,6-b]pyridazin-6-one], the IC50 in test [1], in test [2] and in test [3] was more than 3330 nM in each case.
Take `Cc1cc(F)ccc1Oc1ccc2c(-c3c(Cl)cccc3Cl)c(=O)ncn2n1` [Compound I-28, 5-(2,6-dichlorophenyl)-2-(4-fluoro-2-methylphenoxy)-6H-pyrimido[1,6-b]pyridazin-6-one]: the IC50 in test [1] (setting [4]) was more than 3330 nM; in test [2] (setting [5]), more than 3330 nM; in test [3] (setting [6]), 38.8 nM.
As for `COc1ccc(Oc2ccc3c(-c4c(Cl)cccc4Cl)c(=O)ncn3n2)c(Cl)c1` [Compound I-9, 2-(2-chloro-4-methoxyphenoxy)-5-(2,6-dichlorophenyl)-6H-pyrimido[1,6-b]pyridazin-6-one], the values for the IC50 in test [1] (setting [4]), in test [2] (setting [5]) and in test [3] (setting [6]) were more than 3330 nM, 301 nM and 112 nM, respectively.
Taken in the same sequence, the figures for `Cc1cc(Cl)ccc1Oc1ccc2c(-c3c(Cl)cccc3Cl)c(=O)ncn2n1` [Compound I-34, 2-(4-chloro-2-methylphenoxy)-5-(2,6-dichlorophenyl)-6H-pyrimido[1,6-b]pyridazin-6-one] were more than 3330 nM, 389 nM and 49.8 nM.
Taken in the same sequence, the figures for `O=c1ncn2nc(OC3CC=CC3)ccc2c1-c1c(Cl)cccc1Cl` [Compound I-38, 2-(cyclopent-3-en-1-yloxy)-5-(2,6-dichlorophenyl)-6H-pyrimido[1,6-b]pyridazin-6-one] were more than 3330 nM, 2160 nM and 414 nM.
As for `COC(=O)c1ccc(OC)c(-c2c(=O)ncn3nc(Oc4ccc(F)cc4F)ccc23)c1` [Compound I-55, methyl 3-[2-(2,4-difluorophenoxy)-6-oxo-pyrimido[1,6-b]pyridazin-5-yl]-4-methoxybenzoate], the figures for the IC50 in test [1] (setting [4]), in test [2] (setting [5]) and in test [3] (setting [6]) were more than 3330 nM, 117 nM and 17.7 nM, respectively.
Taken in the same sequence, the figures for `CC(Oc1ccc2c(-c3c(Cl)cccc3Cl)c(=O)ncn2n1)c1ccc(F)cc1F` (stereo not drawn) [Compound I-41, 5-(2,6-dichlorophenyl)-2-(1-(2,4-difluorophenyl)ethoxy)-6H-pyrimido[1,6-b]pyridazin-6-one] were more than 3330 nM, more than 3330 nM and more than 3330 nM.
Turning to `O=c1ncn2nc(Oc3ccc(F)cc3F)ccc2c1-c1cccc(Cl)c1Cl` [Compound I-52, 5-(2,3-dichlorophenyl)-2-(2,4-difluorophenoxy)-6H-pyrimido[1,6-b]pyridazin-6-one], the IC50 in test [1] (setting [4]) was more than 3330 nM; in test [2] (setting [5]), 947 nM; in test [3] (setting [6]) it was 54.2 nM.
Taken in the same sequence, the figures for `Cc1cccc(C)c1-c1c(=O)ncn2nc(Oc3ccc(F)cc3F)ccc12` [Compound I-45, 2-(2,4-difluorophenoxy)-5-(2,6-dimethylphenyl)-6H-pyrimido[1,6-b]pyridazin-6-one] were more than 3330 nM, 643 nM and 35.4 nM.
Consider `O=c1ncn2nc(OC3CCOC3)ccc2c1-c1c(Cl)cccc1Cl` (stereo not drawn) [Compound I-3, 5-(2,6-dichlorophenyl)-2-((tetrahydrofuran-3-yl)oxy)-6H-pyrimido[1,6-b]pyridazin-6-one], for which the IC50 in test [1] (setting [4]), in test [2] (setting [5]) and in test [3] (setting [6]) was more than 3330 nM in each case.
Take `N#Cc1ccc(Oc2ccc3c(-c4c(Cl)cccc4Cl)c(=O)ncn3n2)cc1` [Compound I-26, 4-((5-(2,6-dichlorophenyl)-6-oxo-6H-pyrimido[1,6-b]pyridazin-2-yl)oxy)benzonitrile]: the IC50 in test [1] (setting [4]), in test [2] (setting [5]) and in test [3] (setting [6]) was more than 3330 nM in each case.
Turning to `O=c1ncn2nc(NC3CC(F)(F)C3)ccc2c1-c1c(Cl)cccc1Cl` [Compound I-14, 5-(2,6-dichlorophenyl)-2-((3,3-difluorocyclobutyl)amino)-6H-pyrimido[1,6-b]pyridazin-6-one], the IC50 was more than 3330 nM in test [1] (setting [4]), more than 3330 nM in test [2] (setting [5]) and 1350 nM in test [3] (setting [6]).
Take `O=c1ncn2nc(Oc3ccc(F)cc3F)c(-c3ccncc3)cc2c1-c1c(Cl)cccc1Cl` [Compound I-59, 5-(2,6-dichlorophenyl)-2-(2,4-difluorophenoxy)-3-(pyridin-4-yl)-6H-pyrimido[1,6-b]pyridazin-6-one]: the values for the IC50 in test [1] (setting [4]), in test [2] (setting [5]) and in test [3] (setting [6]) were more than 3330 nM, 1220 nM and 81.3 nM, respectively.
Turning to `O=c1ncn2nc(Oc3ccc(Cl)cc3)ccc2c1-c1c(Cl)cccc1Cl` [Compound I-33], the IC50 in test [1] (setting [4]) is more than 3330 nM; in test [2] (setting [5]), 470 nM; in test [3] (setting [6]) it was 24 nM.
Taken in the same sequence, the figures for `O=c1ncn2nc(Oc3cccc(F)c3)ccc2c1-c1c(Cl)cccc1Cl` [Compound I-25, 5-(2,6-dichlorophenyl)-2-(3-fluorophenoxy)-6H-pyrimido[1,6-b]pyridazin-6-one] were more than 3330 nM, 1430 nM and 151 nM.
`O=c1ncn2nc(Oc3ccc(F)cc3F)ccc2c1C1=CCCCC1` [Compound I-44, 5-(cyclohex-1-en-1-yl)-2-(2,4-difluorophenoxy)-6H-pyrimido[1,6-b]pyridazin-6-one]: the IC50 in test [1] (setting [4]) is more than 3330 nM; in test [2] (setting [5]), 635 nM; in test [3] (setting [6]) it was 31 nM.
Taken in the same sequence, the figures for `CCOc1ccc2c(-c3c(Cl)cccc3Cl)c(=O)ncn2n1` [Compound I-7, 5-(2,6-dichlorophenyl)-2-ethoxy-6H-pyrimido[1,6-b]pyridazin-6-one] were more than 3330 nM, more than 3330 nM and 1680 nM.
Taken in the same sequence, the figures for `O=c1ncn2nc(Oc3ccc(F)cc3F)ccc2c1-c1ccc(Cl)cc1Cl` [Compound I-56, 5-(2,4-dichlorophenyl)-2-(2,4-difluorophenoxy)-6H-pyrimido[1,6-b]pyridazin-6-one] were more than 3330 nM, 479 nM and 19.6 nM.
`O=c1ncn2nc(OC3C=CCCC3)ccc2c1-c1c(Cl)cccc1Cl` (stereo not drawn) [Compound I-37, 2-(cyclohex-2-en-1-yloxy)-5-(2,6-dichlorophenyl)-6H-pyrimido[1,6-b]pyridazin-6-one]: the IC50 was more than 3330 nM in test [1] (setting [4]), 2830 nM in test [2] (setting [5]) and 503 nM in test [3] (setting [6]).
Taken in the same sequence, the figures for `O=c1ncn2nc(OC3CCOCC3)ccc2c1-c1c(Cl)cccc1Cl` [Compound I-2, 5-(2,6-dichlorophenyl)-2-((tetrahydro-2H-pyran-4-yl)oxy)-6H-pyrimido[1,6-b]pyridazin-6-one] were more than 3330 nM, more than 3330 nM and 2690 nM.
Taken in the same sequence, the figures for `O=c1ncn2nc(Oc3cncc(F)c3)ccc2c1-c1c(Cl)cccc1Cl` [Compound I-24, 5-(2,6-dichlorophenyl)-2-((5-fluoropyridin-3-yl)oxy)-6H-pyrimido[1,6-b]pyridazin-6-one] were more than 3330 nM, more than 3330 nM and 1980 nM.
With `O=c1ncn2nc(Oc3ccc(F)cc3F)c(N3CCOCC3)cc2c1-c1c(Cl)cccc1Cl` [Compound I-61, 5-(2,6-dichlorophenyl)-2-(2,4-difluorophenoxy)-3-morpholinyl-6H-pyrimido[1,6-b]pyridazin-6-one], the values for the IC50 in test [1] (setting [4]), in test [2] (setting [5]) and in test [3] (setting [6]) were more than 3330 nM, 32.7 nM and 11.7 nM, respectively.
Taken in the same sequence, the figures for `O=c1ncn2nc(OCC(F)F)ccc2c1-c1c(Cl)cccc1Cl` [Compound I-8, 5-(2,6-dichlorophenyl)-2-(2,2-difluoroethoxy)-6H-pyrimido[1,6-b]pyridazin-6-one] were more than 3330 nM, more than 3330 nM and more than 3330 nM.
With `Cc1ccc(Oc2ccc3c(-c4c(Cl)cccc4Cl)c(=O)ncn3n2)cc1F` [Compound I-11, 5-(2,6-dichlorophenyl)-2-(3-fluoro-4-methylphenoxy)-6H-pyrimido[1,6-b]pyridazin-6-one], the IC50 was more than 3330 nM in test [1] (setting [4]), 1220 nM in test [2] (setting [5]) and 137 nM in test [3] (setting [6]).
Taken in the same sequence, the figures for `CNC(=O)c1ccc(Cl)c(-c2c(=O)ncn3nc(Oc4ccc(F)cc4F)ccc23)c1` [Compound I-51, 4-chloro-3-(2-(2,4-difluorophenoxy)-6-oxo-6H-pyrimido[1,6-b]pyridazin-5-yl)-N-methylbenzamide] were more than 3330 nM, 256 nM and 17.5 nM.
Taken in the same sequence, the figures for `O=c1ncn2nc(Oc3ccc(F)cc3F)ccc2c1-c1ccc(Cl)c(Cl)c1` [Compound I-58, 5-(3,4-dichlorophenyl)-2-(2,4-difluorophenoxy)-6H-pyrimido[1,6-b]pyridazin-6-one] were more than 3330 nM, more than 3330 nM and 137 nM.
